Measured values reported in patent US20120121540A1 (priority 2007, published 2012).

Assay: HCV replicon assay (luciferase reporter, ET cell line)
Type: cell-based
Settings: Hepatitis C virus, HCV replicon luciferase activity in ET cells
Procedure, shortened: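 ET cells carry a stable luciferase-ubiquitin-neo/NS3-5B subgenomic HCV replicon with adaptive mutations. Compounds (0.1 nM to […], 0.5% DMSO) were added 24 h after plating, and luciferase was read 48-72 h later. EC50 came from 10-point 2-fold dilutions fitted to a Hill equation; TC50 was measured in parallel by WST-1.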

Compound	inhibition at 10 µM [%]
O=C(c1nc2c(C(F)(F)F)cc(-c3cn[nH]c3)cn2c1Br)N1CC=C(c2cccs2)C1 [Compound 442, [3-Bromo-6-(1H-pyrazol-4-yl)-8-trifluoromethyl-imidazo[1,2-a]pyridine-2-yl]-(3-thiophen-2-yl-2.5-dihydro-pyrrol-1-yl)-methanone]	99.5
O=C(NCc1cccs1)c1cn2cc(-c3cccc(F)c3)cc(C(F)(F)F)c2n1 [Compound 314, 6-(3-Fluoro-phenyl)-8-trifluoromethyl-imidazo[1,2-a]pyridine-2-carboxylic Acid (thiophen-2-ylmethyl)-amide]	49.6
O=C(c1nc2c(C(F)(F)F)cc(-c3ccoc3)cn2c1Cl)N1CCC1c1ccccc1 (stereo not drawn) [Compound 487, (3-Chloro-6-furan-3-yl-8-trifluoromethyl-imidazo[1,2-a]pyridin-2-yl)-(2-phenyl-azetidin-1-yl)-methanone]	94.2
O=C(c1nc2c(C(F)(F)F)cc(-c3ccoc3)cn2c1Cl)N1C2C=C(c3cscn3)CC1CC2 (stereo not drawn) [Compound 634, [3-chloro-6-(furan-3-yl)-8-(trifluoromethyl)imidazo[1,2-a]pyridin-2-yl][3-(1,3-thiazol-4-yl)-8-azabicyclo[3.2.1]oct-2-en-8-yl]methanone]	86.4
O=C(c1nc2c(C(F)(F)F)cc(-c3ccoc3)cn2c1Cl)N1CC=C(c2cncs2)CC1 [Compound 568]	98.8
O=C(NCCc1ccc(F)cc1)c1nc2c(C(F)(F)F)cc(-c3ccoc3)cn2c1Cl [Compound 407, 3-Chloro-6-furan-3-yl-8-trifluoromethyl-imidazo[1,2-a]-pyridine-2-carboxylic acid [2-(4-fluoro-phenyl)-ethyl]-amide]	88
O=C(Cc1cn2cc(-c3ccoc3)cc(C(F)(F)F)c2n1)N1CCC(c2cccc(F)c2)C1 (stereo not drawn) [Compound 652, 1-[3-(3-fluorophenyl)pyrrolidin-1-yl]-2-[6-(furan-3-yl)-8-(trifluoromethyl)imidazo[1,2-a]pyridin-2-yl]ethanone]	82.1
O=C(c1nc2c(C(F)(F)F)cc(-c3ccco3)cn2c1Cl)N1CCc2ccccc21 [Compound 380, (3-Chloro-6-furan-2-yl-8-trifluoromethyl-imidazo[1,2-a]pyridin-2-yl)-(2,3-dihydro-indol-1-yl)-methanone]	20.2
O=C(NCc1cccs1)c1nc2c(C(F)(F)F)cc(-c3cn[nH]n3)cn2c1Cl [Compound 308, 3-Chloro-6-(2H-[1,2,3]triazol-4-yl)-8-trifluoromethyl-imidazo[1,2-a]pyridine-2-carboxylic Acid (thiophen-2-ylmethyl)-amide]	88.2
CS(=O)(=O)N1CC(NC(=O)c2nc3c(C(F)(F)F)cc(-c4ccoc4)cn3c2Cl)C1 [Compound 510, 3-Chloro-6-furan-3-yl-8-trifluoromethyl-imidazo[1,2-a]pyridine-2-carboxylic Acid (1-methanesulfonyl-azetidin-3-yl)-amide]	24
N#Cc1ccc(F)cc1C1=CCN(C(=O)c2nc3c(C(F)(F)F)cc(-c4ccoc4)cn3c2Cl)CC1 [Compound 569, 2-[1-(3-Chloro-6-furan-3-yl-8-trifluoromethyl-imidazo[1,2-a]pyridine-2-carbonyl)-1,2,3,6-tetrahydro-pyridin-4-yl]-4-fluoro-benzonitrile]	85.3
O=C(c1nc2c(C(F)(F)F)cc(-c3ccoc3)cn2c1Cl)N1CC=C(c2cccnc2F)CC1 [Compound 581, (3-Chloro-6-furan-3-yl-8-trifluoromethyl-imidazo[1,2-a]pyridin-2-yl)-(2-fluoro-3′,6′-dihydro-2′H-[3,4′]bipyridinyl-1′-yl)-methanone]	98.2
O=C(c1nc2c(C(F)(F)F)cc(-c3ccoc3)cn2c1Cl)N1CCC(c2ccc(F)cc2)C1 (stereo not drawn) [Compound 233, (3-Chloro-6-furan-3-yl-8-trifluoromethyl-imidazo[1,2-a]pyridin-2-yl)-[3-(4-fluoro-phenyl)-pyrrolidin-1-yl]-methanone]	90.6
O=C(NCc1cccs1)c1nc2c(C(F)(F)F)cc(C#Cc3ccccc3)cn2c1Cl [Compound 294, 3-Chloro-6-phenylethynyl-8-trifluoromethyl-imidazo[1,2-a]pyridine-2-carboxylic Acid(thiophen-2-ylmethyl)-amide]	41.5
N#Cc1cccc(F)c1C1=CCN(C(=O)c2nc3c(C(F)(F)F)cc(-c4ccoc4)cn3c2Cl)CC1 [Compound 565, 2-[1-(3-Chloro-6-furan-3-yl-8-trifluoromethyl-imidazo[1,2-a]pyridine-2-carbonyl)-1,2,3,6-tetrahydro-pyridin-4-yl]-3-fluoro-benzonitrile]	98
O=C(c1nc2c(C(F)(F)F)cc(-c3ccoc3)cn2c1Cl)N1CC=C(c2ccccc2)C1 [Compound 259, (3-chloro-6-furan-3-yl-8-trifluoromethyl-imidazo[1,2-a]pyridin-2-yl)-(3-phenyl-2,5-dihydro-pyrrol-1-yl)-methanone]	99.4
CS(=O)(=O)N[C@H]1CN(C(=O)c2nc3c(C(F)(F)F)cc(-c4ccoc4)cn3c2Cl)C[C@@H]1c1ccccc1 (stereo in doubt) [Compound 458, N-(-1-(3-Chloro-6-furan-3-yl-8-trifluoromethyl-imidazo[1,2-a]pyridine-2-carbonyl)-4-phenyl-pyrrolidin-3-yl)-methanesulfonamide]	64.6

Compound	inhibition at 10 µM [%]
O=C(c1cn2cc(-c3ccoc3)cc(C(F)(F)F)c2n1)N1CCC(c2ccc(F)cc2)C1 (stereo not drawn) [Compound 251, [3-(4-Fluoro-phenyl)-pyrrolidin-1-yl]-(6-furan-3-yl-8-trifluoromethyl-imidazo[1,2-a]pyridin-2-yl)-methanone]	93.4
O=C(NCc1ccccc1F)c1nc2c(C(F)(F)F)cc(-c3ccoc3)cn2c1Cl [Compound 402, 3-Chloro-6-furan-3-yl-8-trifluoromethyl-imidazo[1,2-a]pyridine-2-carboxylic Acid-2-fluoro-benzylamide]	94.9
O=C(NCc1cccs1)c1cc2cc(-c3cn[nH]c3)cc(Cl)c2[nH]1 [Compound 347, 7-Chloro-5-(1H-pyrazol-4-yl)-1H-indole-2-carboxylic Acid (thiophen-2-ylmethyl)-amide]	0.1
O=C(NCc1cccnc1)c1nc2c(C(F)(F)F)cc(-c3ccco3)cn2c1Cl [Compound 164, 3-Chloro-6-furan-2-yl-8-trifluoromethyl-imidazo[1,2-a]pyridine-2-carboxylic acid (pyridin-3-ylmethyl)-amide]	70.1
O=C(NCc1cccs1)c1nc2c(C(F)(F)F)cc(-c3ccsc3)cn2c1Cl [Compound 160, 3-Chloro-6-thiophen-3-yl-8-trifluoromethyl-imidazo[1,2-a]pyridine-2-carboxylic acid (thiophen-2-ylmethyl)-amide]	97.3
O=C(NCc1cccs1)c1cc2cc(-c3ccco3)cc(Cl)c2[nH]1 [Compound 105, 7-Chloro-5-furan-2-yl-1H-indole-2-carboxylic acid (thiophen-2-ylmethyl)-amide]	58.2
O=C(Cc1nc2c(C(F)(F)F)cc(-c3ccoc3)cn2c1Cl)NCc1cccs1 [Compound 603, 2-[3-Chloro-6-(furan-3-yl)-8-(trifluoromethyl)imidazo[1,2-a]pyridin-2-yl]-N-(thiophen-2-ylmethyl)acetamide]	65.8
CN(C)Cc1cccc(-c2cc(C(F)(F)F)c3nc(C(=O)N4CCC(c5ccc(F)cc5)C4)c(Cl)n3c2)c1 (stereo not drawn) [Compound 354, [3-Chloro-6-(3-dimethylaminomethyl-phenyl)-8-trifluoromethyl-imidazo[1,2-a]pyridin-2-yl]-[3-(4-fluoro-phenyl)-pyrrolidin-1-yl]-methanone]	97.8
O=C(c1nc2c(C(F)(F)F)cc(-c3ccoc3)cn2c1Cl)N1CC=C(c2cscn2)CC1 [Compound 566]	99.4
O=C(c1nc2c(C(F)(F)F)cc(-c3ccoc3)cn2c1Cl)N1CC=C(c2cccc(F)c2)C1 [Compound 426, (3-Chloro-6-furan-3-yl-8-trifluoromethyl-imidazo[1,2-a]pyridin-2-yl)-[3-(3-fluoro-phenyl)-2,5-dihydro-pyrrol-1-yl]-methanone]	98.2
O=C(NCc1cn2cc(-c3ccoc3)cc(C(F)(F)F)c2n1)OCc1ccccc1 [Compound 393, (6-Furan-3-yl-8-trifluoromethyl-imidazo[1,2-a]pyridine-2-ylmethyl)-carbamic Acid Benzyl Ester]	0.5
O=C(c1nc2c(C(F)(F)F)cc(-c3ccoc3)cn2c1Cl)N1C=C(c2ccccc2F)CCC1 [Compound 590, (3-Chloro-6-furan-3-yl-8-trifluoromethyl-imidazo[1,2-a]pyridine-2-yl)-[5-(2-fluoro-phenyl)-3,4-dihydro-2H-pyridin-1-yl]-methanone]	93.9
O=C(c1nc2c(C(F)(F)F)cc(-c3cn[nH]c3)cn2c1Br)N1CCC(c2cccc(F)c2)C1 (stereo not drawn) [Compound 447, (3-Bromo-6-(1H-pyrazol-4-yl)-8-trifluoromethyl-imidazo[1,2-a]pyridin-2-yl)-(3-(3-fluoro-phenyl)-pyrrolidin-1-yl)-methanone]	92.8
O=C(c1nc2c(C(F)(F)F)cc(-c3cn[nH]c3)cn2c1Br)N1CC=C(c2ccc(F)cc2)CC1 [Compound 608, [3-Bromo-6-(1H-pyrazol-4-yl)-8-trifluoromethyl-imidazo[1,2-a]pyridin-2-yl]-[4-(4-fluoro-phenyl)-3,6-dihydro-2H-pyridin-1-yl]-methanone]	62.7
O=C(NCc1cn2cc(-c3ccoc3)cc(C(F)(F)F)c2n1)NCc1ccccc1F [Compound 399, 1-(2-Fluoro-benzyl)-3-(6-furan-3-yl-8-trifluoromethyl-imidazo[1,2-a]pyridine-2-ylmethyl)-urea]	37.7
O=C(NCc1ccco1)c1nc2c(C(F)(F)F)cc(-c3ccco3)cn2c1Cl [Compound 158, 3-Chloro-6-furan-2-yl-8-trifluoromethyl-imidazo[1,2-a]pyridine-2-carboxylic acid (furan-2-ylmethyl)-amide]	88.5
